Source: patent publication US10633383B2, “Compounds for the treatment, alleviation or prevention of disorders associated with Tau aggregates” (AC Immune SA, priority 2018, dated 2020)

Assays:
[1] = target: T1, recombinant full-length (fl)Tau (human Tau 2N4R) aggregates (Homo sapiens, UniProt P10636); test: Full-length Tau (flTau) disaggregation assay by Thioflavin T (ThT); assay type: biochemical; settings: 2 μM flTau aggregates, 30 minutes at RT, ThT fluorescence
T1 construct: 35 μM of recombinant full-length (fl)Tau in PBS were aggregated; made in house; host or cells: bacteria
Procedure: Full-Length Tau (flTau) Disaggregation Assay by Thioflavin T (ThT)
(§1) The longest isoform of human Tau (2N4R; 441 amino acids) was expressed in bacteria and purified. For the Tau disaggregation assay by ThT, 35 μM of recombinant full-length (fl)Tau in PBS were aggregated for 24 hours at 37° C. in presence of 50 μM of heparin (Sigma-Aldrich) and 10 mM of DTT (Sigma-Aldrich) under shaking at 750 RPM. Compounds were dissolved in anhydrous dimethyl sulfoxide (DMSO, Sigma-Aldrich) to reach a concentration of 10 mM. flTau aggregates and serial dilutions of compounds were mixed together in PBS (volume 50 μL) to a final concentration of 2 μM of flTau aggregates and from 160 to 0.04 μM of compounds. The mixture was incubated for 30 minutes at room temperature (RT), then 40 μL of this mixture were transferred into a black 384-well plate assay (Perkin-Elmer) and mixed with 10 μL of 100 μM ThT in 250 mM glycine (both from Sigma-Aldrich) in PBS. Fluorescence (relative fluorescence units; RFU) was measured in monoplicate or duplicate on a Tecan reader (excitation: 440 nm; emission: 485 nm). Percentage of flTau disaggregation was then calculated and the half maximal effective concentration (EC50) was determined using GraphPad Prism version 5 (GraphPad Software) assuming a one-binding site fitting model.

[2] = test system: human neuroblastoma cell line overexpressing the full-length form of human Tau carrying the P301L mutation; test: Reduction of intracellular Tau aggregation (AlphaLISA); assay type: cell-based; settings: compound at 5 μM, 24 h, aggregated Tau normalized to total Tau, relative to DMSO-treated cells
Procedure: Reduction of Intracellular Tau Aggregation
A human neuroblastoma cell line overexpressing the full-length form of human Tau carrying the P301L mutation was cultured in complete medium [DMEM-F12 4.5 g/L Glutamax (Invitrogen), 15% FBS (Biochrom), 1% Peni/Strep (Invitrogen) supplemented with 2.5 μg/ml of G418 (Sigma-Aldrich) selection antibiotic]. The day before the experiment 5×10^5 cells/well were plated in a 6 well plate in 3 mL of complete medium. The next day, cells were incubated with DMSO or a compound of the present invention at a 5 μM for additional 24 h at 37° C. After incubation, cells were trypsinized, resuspended in 100 μl of homogenization buffer [25 mM Tris-HCl pH 7.4, 150 mM NaCl, 1 mM EDTA, 1 mM EGTA containing phosphatase inhibitors (30 mM NaF, 0.2 mM Na3VO4, 1 nM Okadaic acid, 1 mM PMSF, 5 mM Na4P2O7) and protease inhibitor cocktail (Complete™, Roche)], and then physically lysed with three rapid cycles of freezing and thawing. Samples were then directly tested in the AlphaLISA assay. Phosphorylated, aggregated, and total Tau were quantified by AlphaLisa using the following antibody pairs: • HT7-Acceptor beads+biotin (BT)-Tau13-Donor beads: Total Tau • HT7-Acceptor beads+biotin (BT)-HT7-Donor beads: Aggregated human Tau
The Tau13 (Abcam) was biotinylated using EZ-Link® NHS-PEO Solid Phase biotinylation kit (Thermo Scientific), while the HT7-biotin was from a commercial source (Thermo Scientific).
For each antibody pairs the concentration of acceptor beads and biotinylated antibodies was optimized. All samples were first tested in a dilution series in PBS in order to identify the linear range and optimal dilution for each sample and assay. For the final protocol, the following reagents were added in a 384-well white OptiPlate (PerkinElmer): • 5 μL of test diluted sample • 20 μL of the mixture biotin-mAb acceptor beads at the following final concentrations: • HT7-BT at 1.25 nM in combination with HT7-Acc beads at 10 μg/ml • Tau13-BT at 5 nM in combination with HT7-Acc beads at 2.5 μg/ml
After incubation of this mixture at room temperature for 1 h, 25 μL of Streptavidin Donor beads (Perkin Elmer) at 25 μg/mL were added in the dark. Plates were analyzed after 30 min incubation using the EnSpire Alpha instrument and EnSpire Workstation version 3.00. Data for aggregated Tau were normalized to total Tau and then expressed as percentage of the DMSO-treated cells.

[3] = target: T2, Tau K18 fragment (amino acids 244 to 372 of human Tau441) aggregates (Homo sapiens, UniProt P10636); test: Tau K18 disaggregation assay by ThT; assay type: biochemical; settings: 2 μM K18 aggregates, 30 minutes at RT, ThT fluorescence
T2 construct: encompassing amino acids 244 to 372 of the longest isoform (2N4R) of human Tau441; host or cells: bacteria
Procedure: Tau K18 Disaggregation Assay by ThT
as §1, with “Compounds” for “The longest isoform of human Tau (2N4R; 441 amino acids) was expressed in bacteria and purified. For the Tau disaggregation assay by ThT, 35 μM of recombinant full-length (fl)Tau in PBS were aggregated for 24 hours at 37° C. in presence of 50 μM of heparin (Sigma-Aldrich) and 10 mM of DTT (Sigma-Aldrich) under shaking at 750 RPM. Compounds”, “K18” for “flTau”, “and” for “and the”

T1 sequence (P10636 1-441 isoform P10636-8): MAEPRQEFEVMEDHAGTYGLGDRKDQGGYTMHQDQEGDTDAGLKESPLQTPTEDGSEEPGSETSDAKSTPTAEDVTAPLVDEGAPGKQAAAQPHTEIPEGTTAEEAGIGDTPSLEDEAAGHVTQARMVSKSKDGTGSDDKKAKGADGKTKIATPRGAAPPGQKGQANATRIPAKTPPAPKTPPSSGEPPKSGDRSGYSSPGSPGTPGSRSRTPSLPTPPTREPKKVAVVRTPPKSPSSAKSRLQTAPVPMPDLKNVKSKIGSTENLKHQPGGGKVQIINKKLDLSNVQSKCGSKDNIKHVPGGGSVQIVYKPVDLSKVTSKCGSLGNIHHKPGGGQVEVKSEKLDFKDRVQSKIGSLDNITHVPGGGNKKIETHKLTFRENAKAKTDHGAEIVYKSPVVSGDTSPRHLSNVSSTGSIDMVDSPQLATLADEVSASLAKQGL
T2 sequence (P10636 561-689): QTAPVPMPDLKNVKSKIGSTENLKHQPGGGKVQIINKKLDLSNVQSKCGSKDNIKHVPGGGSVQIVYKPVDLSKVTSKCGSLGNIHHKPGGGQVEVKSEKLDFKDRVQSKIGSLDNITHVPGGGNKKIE

| SMILES | EC50 [1] [µM] | inhibition at 5 µM [2] [%] | EC50 [3] [µM] |
| --- | --- | --- | --- |
| Fc1ccc2c3c([nH]c2c1)CCN(c1ccc2oc(N4CCOCC4)nc2c1)C3 [Example 45, 5-(7-fluoro-1,3,4,5-tetrahydropyrido[4,3-b]indol-2-yl)-2-morpholino-1,3-benzoxazole] | < 10 | > 50 | < 10 |
| CN(C)c1nc2cc(N3CCc4[nH]c5cc(F)ccc5c4C3)ccc2s1 [Example 69] | < 10 | > 50 |  |
